Reference: ChEMBL document CHEMBL1201862, “PubChem BioAssay data set” (2004)
The source made the active and inactive calls.

Legend:
[1] = Luminescence-based dose response cell-based high throughput screening assay for cytotoxic compounds using the IEC-6 intestinal epithelial cell line. [Related pubchem assays: 1858 (Summary AID.), 1825 (Counterscreen.), 1907 (Confirmation screen.)]; assay type: functional
[2] = biological target: Neuropeptide Y receptor type 1 (Homo sapiens, UniProt P25929); assay: IC50 of human NPY-Y1 blockers – cell-based, dose response (AID 1277); assay type: functional
Neuropeptide Y receptor type 1, sequence (P25929 whole entry): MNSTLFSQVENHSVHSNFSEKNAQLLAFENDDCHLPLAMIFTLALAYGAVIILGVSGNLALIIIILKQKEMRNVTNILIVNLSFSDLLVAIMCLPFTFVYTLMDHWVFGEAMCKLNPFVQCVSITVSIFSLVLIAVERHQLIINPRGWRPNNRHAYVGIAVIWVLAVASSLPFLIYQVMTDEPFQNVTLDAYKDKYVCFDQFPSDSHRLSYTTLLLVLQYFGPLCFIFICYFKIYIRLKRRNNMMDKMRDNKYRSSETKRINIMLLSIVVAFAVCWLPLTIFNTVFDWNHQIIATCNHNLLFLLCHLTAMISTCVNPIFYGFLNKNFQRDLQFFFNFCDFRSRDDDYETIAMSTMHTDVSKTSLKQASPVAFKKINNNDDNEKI

[3] = biological target: T1, Microphthalmia-associated transcription factor (Homo sapiens, UniProt O75030); assay: reducers of TRPM1 reporter luminescence, concentration series – cell-based, SK-MEL-5, cherry-picked, set 3, MITF inhibitor project, dose response (AID 493073); assay type: functional;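 also: SK-MEL-5 melanoma cells with luciferase driven by the MITF target TRPM1 promoter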
T1 sequence (O75030 whole entry): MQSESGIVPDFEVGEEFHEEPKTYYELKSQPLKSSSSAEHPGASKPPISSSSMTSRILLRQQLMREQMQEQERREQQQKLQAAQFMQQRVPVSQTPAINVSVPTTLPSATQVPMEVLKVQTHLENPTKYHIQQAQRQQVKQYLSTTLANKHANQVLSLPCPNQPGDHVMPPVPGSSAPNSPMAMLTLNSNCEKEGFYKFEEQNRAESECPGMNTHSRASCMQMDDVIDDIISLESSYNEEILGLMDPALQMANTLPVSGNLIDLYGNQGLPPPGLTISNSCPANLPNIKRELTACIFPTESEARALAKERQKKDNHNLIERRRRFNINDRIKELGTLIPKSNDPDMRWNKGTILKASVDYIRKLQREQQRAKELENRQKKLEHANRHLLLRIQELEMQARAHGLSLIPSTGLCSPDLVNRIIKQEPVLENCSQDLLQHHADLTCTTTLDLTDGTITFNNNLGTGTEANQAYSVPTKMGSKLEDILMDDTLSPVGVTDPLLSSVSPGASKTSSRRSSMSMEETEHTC

[4] = biological target: Sphingosine 1-phosphate receptor 1 (Homo sapiens, UniProt P21453); assay type: functional;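 also: Tango beta-arrestin reporter U2OS cells stimulated with S1P near its EC80; inhibitor potency meaning antagonism of receptor activation by the natural agonist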
Sphingosine 1-phosphate receptor 1, sequence (P21453 whole entry): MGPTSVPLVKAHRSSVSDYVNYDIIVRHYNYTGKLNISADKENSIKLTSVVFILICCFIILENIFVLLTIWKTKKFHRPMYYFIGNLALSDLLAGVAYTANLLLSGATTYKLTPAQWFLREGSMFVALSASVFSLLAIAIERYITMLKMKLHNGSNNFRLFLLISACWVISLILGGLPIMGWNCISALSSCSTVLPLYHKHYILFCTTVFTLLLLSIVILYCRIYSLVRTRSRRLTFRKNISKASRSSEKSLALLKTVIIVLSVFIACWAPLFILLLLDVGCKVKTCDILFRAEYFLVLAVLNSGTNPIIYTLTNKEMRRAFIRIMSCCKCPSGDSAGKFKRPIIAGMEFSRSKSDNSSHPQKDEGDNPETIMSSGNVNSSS

[5] = reduced cellular PGC1a acetyl-lysine signal – cell-based, cherry-picked samples, dose response (AID 720514); assay type: functional;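 also: potency may reflect raised or lowered acetylation signal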
[6] = Fluorescence-based cell-based high throughput dose response assay for inhibitors of the interaction of nucleotide-binding oligomerization domain containing 2 (NOD2) and the receptor-interacting serine-threonine kinase 2 (RIPK2).; assay type: functional; settings: Homo sapiens
[7] = biological target: T2, Sphingosine 1-phosphate receptor 4 (Homo sapiens, UniProt O95977); assay: Fluorescence dose response cell-based high throughput screening assay for antagonists of the Sphingosine 1-Phosphate Receptor 4 (S1P4). [Related pubchem assays: 1524 (Confirmation in triplicates.), 1510 (Primary screen.)]; assay type: functional
T2 sequence (O95977 whole entry): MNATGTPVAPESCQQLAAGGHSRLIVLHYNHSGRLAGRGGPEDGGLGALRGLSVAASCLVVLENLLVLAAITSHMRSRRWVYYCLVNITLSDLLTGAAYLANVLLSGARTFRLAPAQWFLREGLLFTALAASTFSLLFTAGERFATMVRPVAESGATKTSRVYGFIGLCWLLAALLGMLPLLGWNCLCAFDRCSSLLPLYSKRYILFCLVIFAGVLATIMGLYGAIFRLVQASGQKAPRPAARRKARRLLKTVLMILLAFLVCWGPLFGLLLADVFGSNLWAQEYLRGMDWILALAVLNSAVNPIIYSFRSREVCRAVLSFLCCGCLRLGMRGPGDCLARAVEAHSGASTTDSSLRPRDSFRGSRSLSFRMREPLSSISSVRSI

[8] = Trypanosoma cruzi growth suppression in host cells – NIH3T3 host cells, beta-gal luminescence, confirmation (AID 2044); assay type: functional, cell-based;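 also: intracellular parasites grown in NIH/3T3 mouse fibroblasts as host cells; luminescent beta-galactosidase reporter signal from transgenic T. cruzi replicating inside host cells; inhibitors lower the luminescence signal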
[9] = NIH3T3 cell viability loss – ATP luminescence, mouse fibroblasts, counter-screen, dose response (AID 2010); assay type: functional, cell-based;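 also: cells exposed to compound for about 90 hours before reading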
[10] = Luminescence Cell-Based Dose Response to Identify Activators of 5'UTR Stem-Loop Driven Prion Protein mRNA Translation in H4-C Neuroglioblastoma Cells. [Related pubchem assays: 1829 (Project Summary), 1814 (Primary HTS)]; assay type: functional
[11] = Luminescence Cell-Based Dose Response HTS to Identify Activators of Luciferase Translation or Activity in H4 […] Cells. [Related pubchem assays: 1829 (Project Summary), 1814 (Primary HTS)]; assay type: functional
[12] = Luminescence Cell-Based Dose Confirmation to Identify Activators of 5'UTR Stem-Loop Driven Alpha-Synuclein mRNA Translation in H4 Neuroglioblastoma Cells. [Related pubchem assays: 1829 (Project Summary), 1814 (Primary HTS)]; assay type: functional
H4 = assay: Luminescence Cell-Based Dose Response HTS to Identify Activators of 5'UTR Stem-Loop Driven Prion Protein mRNA Translation in H4 Neuroglioblastoma Cells. [Related pubchem assays: 1829 (Project Summary), 1814 (Primary HTS)]; assay type: functional; settings: Homo sapiens
[13] = Luminescence Cell-Based Dose Response to Identify Activators of Luciferase Translation or Activity in H4-C Neuroglioblastoma Cells. [Related pubchem assays: 1829 (Project Summary), 1814 (Primary HTS)]; assay type: functional
Large T antigen = Large T antigen (Simian virus 40, UniProt P03070); assay type: functional, Betapolyomavirus macacae;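 also: Confirmatory-stage PubChem screen for compounds that inhibit SV40 T antigen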
Large T antigen, sequence (P03070 whole entry): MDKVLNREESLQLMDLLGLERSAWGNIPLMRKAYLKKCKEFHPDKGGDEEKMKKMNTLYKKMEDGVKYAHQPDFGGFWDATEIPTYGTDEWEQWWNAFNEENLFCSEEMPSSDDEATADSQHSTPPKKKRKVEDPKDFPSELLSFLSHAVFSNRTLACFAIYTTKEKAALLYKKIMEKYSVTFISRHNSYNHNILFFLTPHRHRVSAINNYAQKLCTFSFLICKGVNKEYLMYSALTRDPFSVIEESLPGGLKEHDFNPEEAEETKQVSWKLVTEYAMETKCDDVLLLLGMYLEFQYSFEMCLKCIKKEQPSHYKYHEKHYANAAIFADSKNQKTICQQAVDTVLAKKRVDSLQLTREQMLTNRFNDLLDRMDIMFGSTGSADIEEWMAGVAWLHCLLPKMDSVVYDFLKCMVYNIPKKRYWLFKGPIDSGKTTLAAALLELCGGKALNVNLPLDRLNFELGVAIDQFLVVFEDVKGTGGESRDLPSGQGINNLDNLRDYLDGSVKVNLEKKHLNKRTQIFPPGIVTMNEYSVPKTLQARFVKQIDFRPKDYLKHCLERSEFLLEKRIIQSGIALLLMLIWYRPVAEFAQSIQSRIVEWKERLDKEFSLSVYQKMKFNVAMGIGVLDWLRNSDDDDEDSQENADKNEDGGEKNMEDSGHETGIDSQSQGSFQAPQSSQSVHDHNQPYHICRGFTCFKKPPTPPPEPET

[14] = Luminescence Cell-Based Dose Confirmation HTS to Identify Activators of 5'UTR Stem-Loop Driven Alpha-Synuclein mRNA Translation in H4 Neuroglioblastoma Cells. [Related pubchem assays: 1829 (Project Summary), 1814 (Primary HTS)]; assay type: functional
[15] = biological target: Induced myeloid leukemia cell differentiation protein Mcl-1 (Homo sapiens, UniProt Q07820); assay type: functional
Induced myeloid leukemia cell differentiation protein Mcl-1, sequence (Q07820 whole entry): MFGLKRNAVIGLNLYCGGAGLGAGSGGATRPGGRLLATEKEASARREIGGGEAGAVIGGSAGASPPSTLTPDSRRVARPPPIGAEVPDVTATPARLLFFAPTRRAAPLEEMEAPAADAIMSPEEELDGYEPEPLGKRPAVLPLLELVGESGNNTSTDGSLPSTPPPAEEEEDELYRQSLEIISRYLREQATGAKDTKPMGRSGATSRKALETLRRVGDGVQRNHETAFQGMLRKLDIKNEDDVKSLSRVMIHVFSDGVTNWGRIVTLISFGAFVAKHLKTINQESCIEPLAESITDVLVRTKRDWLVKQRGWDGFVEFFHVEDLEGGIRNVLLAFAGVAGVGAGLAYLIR

N=C(N)Nc1ccc(NC(=N)N)cc1
IC50 [1]: 1800 nM (active)

CCc1cc(-c2n[nH]cc2-c2ccc3c(c2)OCO3)c(O)cc1O
IC50 [2]: 13300 nM (not active)

O=C(Cn1ncc(Cl)c(Cl)c1=O)c1ccc(Cl)cc1
AC50 [3]: 8810 nM (active) | IC50 [4]: 7280 nM (active) | AC50 [5]: 3390 nM (active) | IC50 [6]: 1840 nM (active) | IC50 [7]: 2150 nM (active) | EC50 [8]: 2110 nM (active) | EC50 [9]: 2410 nM (active)

Oc1ccc(-c2csc(Nc3ncccn3)n2)cc1O
EC50 [10]: 815 nM (active) | EC50 [11]: 3450 nM (active) | EC50 [12]: 670 nM (active) | EC50 (H4): 125 nM (active) | EC50 [13]: > 12000 nM (not active) | IC50 (Large T antigen): 14000 nM (active) | EC50 [14]: 100 nM (active) | IC50 [15]: 3520 nM (active)
